Laboratory results from patent publication US9034882B2, “Inhibitors of human immunodeficiency virus replication” (priority 2012, dated 2015).
Read-outs that look alike come from different tables or passages of the source.

Test system: recombinant NL-Rluc virus
Experiment: Inhibition of HIV replication (NL-RLuc luciferase reporter virus in MT-2 cells)
Type: cell-based
[1] = Human immunodeficiency virus 1, MT2, 120 h, read-out: Activity
[2] = read-out: Activity, MT-2 cells infected with NL-RLuc virus, 5 days of incubation, luciferase readout, serum condition not given
[3] = Human immunodeficiency virus 1, MT2, 120 h, read-out: EC50 μM

Structure (SMILES) | EC50 [1] [µM] | EC50 [2] [µM] | EC50 [3] [µM]
Cc1nc2cc(-c3ccccc3)nn2c(N2CCC3(CC2)CC3)c1[C@H](OC(C)(C)C)C(=O)O [Example 30, (S)-2-(tert-butoxy)-2-(5-methyl-2-phenyl-7-(6-azaspiro[2.5]octan-6-yl)pyrazolo[1,5-a]pyrimidin-6-yl)acetic acid] | 0.1 to 1 | – | –
Cc1nc2cc(-c3cccc(-c4ccccc4)c3)nn2c(N2CCS(=O)(=O)CC2)c1[C@H](OC(C)(C)C)C(=O)O [Example 46, (S)-2-(2-([1,1′-Biphenyl]-3-yl)-7-(1,1-dioxidothiomorpholino)-5-methylpyrazolo[1,5-a]pyrimidin-6-yl)-2-(tert-butoxy)acetic acid] | 0.1 to 1 | – | –
Cc1nc2cc(-c3cccc(-c4ccc(F)cc4)c3)nn2c(N2CCC(C)(C)CC2)c1[C@H](OC(C)(C)C)C(=O)O [Example 56, (S)-2-(tert-Butoxy)-2-(7-(4,4-dimethylpiperidin-1-yl)-2-(4′-fluoro-[1,1′-biphenyl]-3-yl)-5-methylpyrazolo[1,5-a]pyrimidin-6-yl)acetic acid] | 0.1 to 1 | – | –
Cc1nc2nc(-c3ccccc3)nn2c(N2CCC(C)CC2)c1C(OC(C)(C)C)C(=O)O (stereo not drawn) [Example 38, 2-tert-Butoxy-2-(5-methyl-7-(4-methylpiperidin-1-yl)-2-phenyl-[1,2,4]triazolo[1,5-a]pyrimidin-6-yl)acetic acid] | > 1 | – | –
Cc1nc2cc(-c3ccccc3)nn2c(N2CCCCC2C)c1C(OC(C)(C)C)C(=O)O (stereo not drawn) [Example 20] | – | 0.1 to 1 | –
Cc1nc2cc(-c3cccc(-c4cccc(F)c4)c3)nn2c(N2CCC3(CC2)CC3)c1[C@H](OC(C)(C)C)C(=O)O [Example 53, (S)-2-(tert-Butoxy)-2-(2-(3′-fluoro-[1,1′-biphenyl]-3-yl)-5-methyl-7-(6-azaspiro[2.5]octan-6-yl)pyrazolo[1,5-a]pyrimidin-6-yl)acetic acid] | 0.1 to 1 | – | –
Cc1nc2cc(-c3ccccc3)nn2c(N2CCCCCC2)c1C(OC(C)(C)C)C(=O)O (stereo not drawn) [Example 6, 2(7-(azepan-1-yl)-5-methyl-2-phenylpyrazolo[1,5a]pyrimidin-6-yl)-2-(tert-butoxy)-acetic acid] | > 1 | – | –
Cc1nc2cc(-c3cccc(-c4ccccc4F)c3)nn2c(N2CCC3(C)CC3C2)c1[C@H](OC(C)(C)C)C(=O)O (stereo partly drawn) [Example 63, (2S)-2-(tert-Butoxy)-2-(2-(2′-fluoro-[1,1′-biphenyl]-3-yl)-5-methyl-7-(6-methyl-3-azabicyclo[4.1.0]heptan-3-yl)pyrazolo[1,5-a]pyrimidin-6-yl)acetic acid] | 0.1 to 1 | – | –
Cc1nc2cc(-c3ccccc3)nn2c(N2CCC(C(C)C)CC2)c1C(OC(C)(C)C)C(=O)O (stereo not drawn) [Example 16] | 0.1 to 1 | – | 0.77
COC1CCN(c2c(C(OC(C)(C)C)C(=O)O)c(C)nc3cc(-c4ccccc4)nn23)CC1 (stereo not drawn) [Example 11] | > 1 | – | –
Cc1nc2cc(-c3ccccc3)nn2c(N2CCCCC2)c1C(OC(C)(C)C)C(=O)O (stereo not drawn) [Example 2, 2-(tert-butoxy)-2-(7-(lpiperidin-1-yl)-5-methyl-2-phenylpyrazolo[1,5a]pyrimidin-6-yl)acetic acid] | > 1 | – | 5
Cc1nc2cc(-c3cccc(Oc4ccccc4)c3)nn2c(N2CCC(C)(C)CC2)c1[C@H](OC(C)(C)C)C(=O)O [Example 66, (S)-2-(tert-Butoxy)-2-(7-(4,4-dimethylpiperidin-1-yl)-5-methyl-2-(3-phenoxyphenyl)pyrazolo[1,5-a]pyrimidin-6-yl)acetic acid] | 0.1 to 1 | – | –
Cc1nc2cc(-c3cccc(-c4ccccc4)c3)nn2c(N2CCC3(C)CC3C2)c1[C@H](OC(C)(C)C)C(=O)O (stereo partly drawn) [Example 62, (2S)-2-(2-([1,1′-Biphenyl]-3-yl)-5-methyl-7-(6-methyl-3-azabicyclo[4.1.0]heptan-3-yl)pyrazolo[1,5-a]pyrimidin-6-yl)-2-(tert-butoxy)acetic acid] | – | 0.1 to 1 | 0.42
Cc1nc2cc(-c3ccccc3)nn2c(N2CCCC(C)C2)c1C(OC(C)(C)C)C(=O)O (stereo not drawn) [Example 10] | > 1 | – | –
Cc1nc2cc(-c3cccc(-c4ccccc4)c3)nn2c(N2CCOCC2)c1[C@H](OC(C)(C)C)C(=O)O [Example 44, (S)-2-(2-([1,1′-Biphenyl]-3-yl)-5-methyl-7-morpholinopyrazolo[1,5-a]pyrimidin-6-yl)-2-(tert-butoxy)acetic acid] | 0.1 to 1 | – | –
Cc1nc2cc(-c3cccc(-c4ccccc4F)c3)nn2c(N2CCC3(C)CC3C2)c1[C@H](OC(C)(C)C)C(=O)O (stereo partly drawn) [Example 64, (2S)-2-(tert-Butoxy)-2-(2-(2′-fluoro-[1,1′-biphenyl]-3-yl)-5-methyl-7-(6-methyl-3-azabicyclo[4.1.0]heptan-3-yl)pyrazolo[1,5-a]pyrimidin-6-yl)acetic acid] | – | 0.1 to 1 | –
Cc1nc2cc(-c3ccccc3)nn2c(N2C(C)COCC2C)c1C(OC(C)(C)C)C(=O)O (stereo not drawn) [Example 9] | > 1 | – | –
Cc1nc2cc(-c3ccc4c(c3)CCCC4)nn2c(N2CCC(C)CC2)c1[C@H](OC(C)(C)C)C(=O)O [Example 34, (S)-2-(tert-Butoxy)-2-(5-methyl-7-(4-methylpiperidin-1-yl)-2-(5,6,7,8-tetrahydronaphthalen-2-yl)pyrazolo[1,5-a]pyrimidin-6-yl)acetic acid] | 0.1 to 1 | – | –
Cc1nc2cc(-c3ccccc3)nn2c(N2CCC(C(=O)O)CC2)c1C(OC(C)(C)C)C(=O)O (stereo not drawn) [Example 13] | > 1 | – | –
Cc1nc2nc(-c3ccccc3)nn2c(N2CCCC(C)(C)C2)c1C(OC(C)(C)C)C(=O)O (stereo not drawn) [Example 41, 2-(tert-Butoxy)-2-(7-(3,3-dimethylpiperidin-1-yl)-5-methyl-2-phenyl-[1,2,4]triazolo[1,5-a]pyrimidin-6-yl)acetic acid] | < 0.1 | – | –
Cc1nc2cc(-c3cccc(-c4ccccc4)c3)nn2c(N2CCC3(CC2)CC3)c1[C@H](OC(C)(C)C)C(=O)O [Example 47, (S)-2-(2-([1,1′-Biphenyl]-3-yl)-5-methyl-7-(6-azaspiro[2.5]octan-6-yl)pyrazolo[1,5-a]pyrimidin-6-yl)-2-(tert-butoxy)acetic acid] | 0.1 to 1 | – | –
Cc1nc2cc(-c3ccccc3)nn2c(N2CCC(C)(C)C2)c1[C@H](OC(C)(C)C)C(=O)O [Example 28, (S)-2-(tert-butoxy)-2-(7-(3,3-dimethylpyrrolidin-1-yl)-5-methyl-2-phenylpyrazolo[1,5-a]pyrimidin-6-yl)acetic acid] | 0.1 to 1 | – | –
Cc1nc2cc(-c3cccc(-c4cccc(F)c4)c3)nn2c(N2CCC(C)(C)CC2)c1[C@H](OC(C)(C)C)C(=O)O [Example 55, (S)-2-(tert-Butoxy)-2-(7-(4,4-dimethylpiperidin-1-yl)-2-(3′-fluoro-[1,1′-biphenyl]-3-yl)-5-methylpyrazolo[1,5-a]pyrimidin-6-yl)acetic acid] | 0.1 to 1 | – | –
Cc1nc2cc(-c3ccccc3)nn2c(N2CCC(C)(C)CC2)c1C(OC(C)(C)C)C(=O)O (stereo not drawn) [Example 1, 2-(tert-butoxy)-2-(7-(4,4-dimethylpiperidin-1-yl)-5-methyl-2-phenylpyrazolo[1,5a]pyrimidin-6-yl)acetic acid] | 0.1 to 1 | – | 0.55
Cc1nc2cc(-c3ccccc3)nn2c(N2CCN(C)CC2)c1C(OC(C)(C)C)C(=O)O (stereo not drawn) [Example 7, 2-(tert-butoxy)-2-(5-methyl-7(4-methylpiperazin-1-yl)-2-phenylpyrazolo[1,5a]pyrimidin-6-yl)acetic acid] | > 1 | – | 5.2
